Source: EP1031349A1, “Use of substituted 4-biarylbutyric and 5-biarylpentanoic acid derivatives for the treatment of cerebral diseases” (Bayer Aktiengesellschaft, priority 1999, dated 2000)
Read-outs that look alike come from different tables or passages of the source.

Columns and labels:
MMP-1 = molecular target: T1, MMP-1 (Homo sapiens, UniProt P03956); assay: Automated MMP profiling assay (P218 quenched fluorescence), MMP-1; format: biochemical
T1 sequence (P03956 100-469): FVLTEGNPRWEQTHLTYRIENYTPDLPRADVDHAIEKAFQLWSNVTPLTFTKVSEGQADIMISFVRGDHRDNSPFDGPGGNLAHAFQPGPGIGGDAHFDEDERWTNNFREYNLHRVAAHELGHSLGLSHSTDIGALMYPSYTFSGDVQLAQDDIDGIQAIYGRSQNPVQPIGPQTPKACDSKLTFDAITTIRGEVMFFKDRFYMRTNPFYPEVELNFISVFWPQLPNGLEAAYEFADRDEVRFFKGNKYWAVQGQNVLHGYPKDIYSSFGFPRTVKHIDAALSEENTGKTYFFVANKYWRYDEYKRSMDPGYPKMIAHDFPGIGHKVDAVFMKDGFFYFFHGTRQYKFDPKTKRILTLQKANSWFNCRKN

MMP-2 = molecular target: T2, MMP-2 (Homo sapiens, UniProt P08253); assay: Automated MMP profiling assay (P218 quenched fluorescence), MMP-2; format: biochemical
T2 sequence (P08253 110-660): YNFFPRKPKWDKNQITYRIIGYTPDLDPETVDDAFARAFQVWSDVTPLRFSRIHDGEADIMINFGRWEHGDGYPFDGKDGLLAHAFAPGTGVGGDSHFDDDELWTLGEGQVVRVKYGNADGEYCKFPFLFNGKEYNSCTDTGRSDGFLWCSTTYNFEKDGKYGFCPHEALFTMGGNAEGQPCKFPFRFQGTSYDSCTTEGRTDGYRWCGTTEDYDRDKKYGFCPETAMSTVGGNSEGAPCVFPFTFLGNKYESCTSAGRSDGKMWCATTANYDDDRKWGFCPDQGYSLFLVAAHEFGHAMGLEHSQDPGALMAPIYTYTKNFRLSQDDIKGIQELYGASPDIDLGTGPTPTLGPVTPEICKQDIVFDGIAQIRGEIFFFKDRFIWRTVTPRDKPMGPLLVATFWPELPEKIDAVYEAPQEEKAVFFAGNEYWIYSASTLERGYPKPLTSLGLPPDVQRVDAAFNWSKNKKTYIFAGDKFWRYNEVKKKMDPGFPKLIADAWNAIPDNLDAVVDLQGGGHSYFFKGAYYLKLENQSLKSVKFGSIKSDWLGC

MMP-3 = MMP-3 (Homo sapiens, UniProt P08254); assay: Automated MMP profiling assay (P218 quenched fluorescence), MMP-3; format: biochemical
MMP-3, sequence (P08254 100-274 limits assumed): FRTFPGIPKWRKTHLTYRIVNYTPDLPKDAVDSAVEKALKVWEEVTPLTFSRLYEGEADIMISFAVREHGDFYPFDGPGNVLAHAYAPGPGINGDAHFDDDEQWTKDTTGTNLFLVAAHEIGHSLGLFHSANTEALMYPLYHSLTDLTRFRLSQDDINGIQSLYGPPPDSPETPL
Procedure: Truncated Prostromelysin-257 is expressed in a soluble form in E.coli as described by Marcy et al., Biochemistry, 30, 6476-6483, 1991. Soluble truncated prostromelysin is purified by a modification of the monoclonal antibody affinity chromatography method described by Housley et al., J. Biol. Chem., 268, 4481-87, 1993.
This assay was originally described by Knight et al., FEBS Letters, 296, 263-266, 1992, for a related substrate. The assay is run continuously in a 3.0ml cuvette using a Perkin-Elmer LS 50 B Spectrofluorimeter at 25 ^∞C in a final volume of 2.0 mls. P218 substrate (10mM) in 100% DMSO is diluted to a final concentration of 2.0 micromolar (µM) into assay buffer: 50mM MES, pH 6.5 containing 150mM NaCl, 10mM CaCl2, 0.005% Brij-35, and 1%(v/v) DMSO. Test compounds(10mM) in DMSO are diluted in assay buffer at an initial concentration of 10 to 100 micromolar. These are diluted to a final concentration in the assay from 10 nM to 1 µM depending upon their potency previously determined in primary thiopeptilide assay described above. The reaction is initiated by the addition of recombinant stromelysin (MMP-3) at a final concentration of 1.0 nM. Upon peptide cleavage, the fluorescent MCA group is detected using an excitation wavelength of 328 nanometers and an emission wavelength of 393 nanometers. The assay is linear from 0.2 to 5nM MMP-3 concentration and percent inhibition is calculated as described above for the primary thiopeptilide assay and IC50 values are determined by a linear regression analysis of percent inhibition versus log drug concentration. The peptide sequence of the MCA substrate, hereinafter designated P218, is shown below: [formula]
This assay is run with a protocol analogous to that reported for MMP-3 inhibition using the synthetic peptide P218 and each of the three enzymes and measuring quenched fluorescence. This assay can be run with each invention compound with the three enzymes MMP-3, MMP-9 and MMP-2 in parallel as adapted for a 96-well microtitre plate using a Hamilton AT ® workstation.

MMP-9 = MMP-9 (Homo sapiens, UniProt P14780); assay: Automated MMP profiling assay (P218 quenched fluorescence), MMP-9; format: biochemical
MMP-9, sequence (P14780 94-707): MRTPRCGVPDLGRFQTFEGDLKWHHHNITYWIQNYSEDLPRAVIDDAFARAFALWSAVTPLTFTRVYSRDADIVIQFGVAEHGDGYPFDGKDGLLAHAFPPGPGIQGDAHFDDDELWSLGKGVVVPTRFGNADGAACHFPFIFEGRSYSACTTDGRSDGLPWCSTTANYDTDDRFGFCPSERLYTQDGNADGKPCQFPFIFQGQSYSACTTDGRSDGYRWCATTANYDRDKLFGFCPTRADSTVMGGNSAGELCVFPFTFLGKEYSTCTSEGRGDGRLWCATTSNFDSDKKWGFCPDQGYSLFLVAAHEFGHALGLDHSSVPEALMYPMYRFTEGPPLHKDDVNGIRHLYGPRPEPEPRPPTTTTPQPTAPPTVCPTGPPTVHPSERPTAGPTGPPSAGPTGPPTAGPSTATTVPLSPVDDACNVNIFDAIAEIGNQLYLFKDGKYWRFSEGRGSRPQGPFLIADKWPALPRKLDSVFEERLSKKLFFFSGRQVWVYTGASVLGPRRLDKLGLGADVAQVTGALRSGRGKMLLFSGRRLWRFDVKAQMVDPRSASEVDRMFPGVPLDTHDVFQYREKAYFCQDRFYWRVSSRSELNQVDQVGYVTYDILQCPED
Procedure: MMP-9 is isolated modifying the previously described procedures of Hibbs et al (J. Biol. Chem., 260, 2493-2500, 1984) and Wilhelm et al (J. Biol. Chem., 264, 17213-17221, 1989). Briefly, polymorphonuclear leukocytes (PMN) preparations are isolated as described above from 3 or more units of freshly drawn whole blood. Cells are resuspended in phosphate buffered saline (PBS) containing 100 ng/ml phorbol myristate acetate (PMA) in the presence of […] di-isopropylfluorophospate (DFP), 1 µg/ml leupeptin and aprotinin, and 1 mg/ml catalase for 1 hr at 37°C. Supernatants are collected by centrifugation (300 x g) and the samples are frozen at-70°C. All chromatographic methods are performed at 4°C. Thawed samples are concentrated 5-fold using an Amicon chamber equipped with a YM-10 membrane. The concentrate is pressure dialyzed against 0.02M Tris-HCl, 0.1 M NaCl, 1 mM CaCl2 , 1 µM ZnCl2, 0.001% Brij-35, 0.02% sodium azide (NaN3), pH 7.5 and applied to DEAE ion exchange chromatography resin which is previously equilibrated with the same buffer at a flow rate of 0.4 ml/min. The column is extensively washed with the same buffer and gelatinase is eluted as 4 ml fractions from the column with 0.02M Tris-HCl, 0.5 M NaCI, 1 mM CaCl2, 1 µM ZnCl2, 0.001% Brij-35, 0.02% NaN3, pH 7.5. Gelatinase containing fractions are observed by gelatin zymography (see below), loaded onto a gelatin agarose affinity resin and washed with the same buffer. […] The protein content associated with material is determined with a micro-BCA assay (Pierce, Rockford, IL), lyophilized and reconstituted to a desired working concentration (100 µg/ml).
This assay was originally described by Knight et al., FEBS Letters, 296, 263-266, 1992, for a related substrate. […] Upon peptide cleavage, the fluorescent MCA group is detected using an excitation wavelength of 328 nanometers and an emission wavelength of 393 nanometers. […]
This assay is run with a protocol analogous to that reported for MMP-3 inhibition using the synthetic peptide P218 and each of the three enzymes and measuring quenched fluorescence. […]

Wistar rats = assay: Subdural hematoma (SDH) model in rats, quantification of edema formation; format: in vivo; conditions: rat-SDH- model, dose of 0.3 mg/kg i.v., edema assessed 24 hours after surgery
Procedure: Wistar rats, weighting 200-250 g were used. Anaesthesia was induced with i.p. injection of 1.2 ml Ketavet (120 mg Ketamin) and 0.8 ml Rompun™ (2% Xylancin) per animal. Body temperatures were maintained at 37°C by means of a rectal thermometer and a heating system.
A midline scalp incision was made and the saggital and coronal sutures identified. A burr hole 3 mm in diameter was drilled 2 mm to the left of the saggital suture and 1 mm posterior to the coronal suture. Using an operating microscope, the dura was incised and a blunt, pre-manufactured plastic tip (ca. 6.0 mm long) was carefully inserted 0.8 mm deep into the subdural space. Rapid-curing cyanoacrylate glue (Histoacryl) was used to seal the burr hole and secure the position of the plastic tip. […]
The edema formation was assessed 24 hours after surgery. […] The wet weight of both hemispheres was determined and after drying for 24 hours at 110°C the dry weights were determined. Based on the increase in tissue water content, tissue swelling (i.e., increase in volume) may be calculated employing the following (modified) equation: (ΔDW(%))/(DWε)× 100(%Swelling) [formula] where DW % is the difference in tissue dry weight between the normal and edematous brain, and DW the dry weight (%) of the edematous brain.

With `CCOc1ccc(-c2ccc(C(=O)[C@H]3CC[C@@H](Sc4ccccc4)[C@@H]3C(=O)O)cc2)cc1` (racemic) [Example 1] the Ki (MMP-1; read-out: MMP-1 Ki) was 3700 nM, the Ki (MMP-2) was 0.46 nM and the Ki (MMP-3; read-out: MMP-3 Ki) was 20 nM. For the same compound, the Ki (MMP-9; read-out: MMP-9 Ki) was 15 nM.

Work on `CCOc1ccc(-c2ccc(C(=O)CC(CCN3C(=O)c4ccccc4C3=O)C(=O)O)cc2)cc1` (racemic) [Example 3] yielded a Ki (MMP-1; read-out: MMP-1 Ki) of 3400 nM, a Ki (MMP-2; read-out: MMP-2 Ki) of 1.1 nM and a Ki (MMP-3; read-out: MMP-3 Ki) of 14 nM. The Ki (MMP-9; read-out: MMP-9 Ki) was 0.78 nM.

Work on `O=C(CC(CCn1nnc2ccccc2c1=O)C(=O)O)c1ccc(-c2ccc(Cl)cc2)cc1` (racemic) [Example 6] yielded a Ki (MMP-1) of 2400 nM, a Ki (MMP-2; read-out: MMP-2 Ki) of 1.2 nM and a Ki (MMP-3) of 6.2 nM. The Ki (MMP-9) was 3 nM.

In the case of `O=C(CC(CCn1nnc2ccccc2c1=O)C(=O)O)c1ccc(-c2ccc(Cl)cc2)cc1` (single isomer, unassigned; (+)) [Example 5, (+)-4-(4'-Chloro-biphenyl-4-yl)-4-oxo-2-[2-(4-oxo-4H-benzo[d][1,2,3]triazin-3-yl)-ethyl]-butyricacid], the “reduced the increase in tissue water content” value (Wistar rats) is reported as 38%.
